Measured values as given in ChEMBL document CHEMBL5113378, “Role of basic aminoalkyl chains in the lead optimization of Indoloquinoline alkaloids” (Eur J Med Chem, 2022).
Values after ≈ are worked out from the molar mass of the structure shown.

How the values were obtained:
[1] = molecular target: Telomerase reverse transcriptase (Homo sapiens, UniProt O14746); assay: Inhibition of telomerase derived from human K562 cell extract incubated for 30 mins by TRAP assay; format: cell-free
Plasmodium falciparum [2] = assay: Antimalarial activity against chloroquine/mefloquine resistant Plasmodium falciparum clinical isolates assessed as parasite growth inhibition incubated for 24 hrs by microtechnique method; format: functional, organism-based
MCF7 = assay: Antiproliferative activity against human MCF7 cells assessed as cell growth inhibition; format: functional, cell-based
A549 = assay: Antiproliferative activity against human A549 cells assessed as cell growth inhibition; format: functional, cell-based
[3] = molecular target: DNA topoisomerase 2-beta (Homo sapiens) (UniProt Q02880); assay: Inhibition of human topoisomerase-2-beta
Trypanosoma brucei = assay: Antitrypanosomal activity against Trypanosoma brucei assessed as parasite growth inhibition; format: functional, organism-based
[4] = Selectivity index, ratio of IC50 for rat L6 cells to IC50 for Plasmodium falciparum NF54; format: toxicity; details: read-out: Ratio IC50
HeLa = assay: Antiproliferative activity against human HeLa cells assessed as cell growth inhibition; format: functional, cell-based
DU-145 = assay: Antiproliferative activity against human DU-145 cells assessed as cell growth inhibition; format: functional
MOLT-3 = assay: Antiproliferative activity against human MOLT-3 cells assessed as cell growth inhibition; format: functional, cell-based
Plasmodium falciparum [5] = assay: Antimalarial activity against Plasmodium falciparum K1 […] assessed as parasite growth inhibition; format: functional, organism-based
[6] = Selectivity index, ratio of CC50 for rat L6 cells to IC50 for Plasmodium falciparum K1 […]; format: toxicity, cell-based; details: read-out: Ratio CC50/IC50
MOLT-4 = assay: Antiproliferative activity against human MOLT-4 cells assessed as cell growth inhibition; format: functional
K562 = assay: Antiproliferative activity against human K562 cells assessed as cell growth inhibition; format: functional
RPMI-8226 = assay: Antiproliferative activity against human RPMI-8226 cells assessed as cell growth inhibition; format: functional
A2780 [7] = assay: Cytotoxicity against drug resistant human A2780 cells assessed as cell growth inhibition; format: functional, cell-based
CH1 [8] = assay: Cytotoxicity against human CH1 cells assessed as cell growth inhibition; format: functional, cell-based
A2780 [9] = assay: Cytotoxicity against human A2780 cells assessed as cell growth inhibition; format: functional, cell-based
CH1 [10] = assay: Cytotoxicity against drug resistant human CH1 cells assessed as cell growth inhibition; format: functional, cell-based
[11] = Cytotoxicity against rat L6 cells assessed as cell growth inhibition; format: toxicity, cell-based
Plasmodium falciparum [12] = assay: Antimalarial activity against Plasmodium falciparum NF54 assessed as parasite growth inhibition; format: functional, organism-based
Hemozoin = assay: Inhibition of beta-hematin formation
[13] = Selectivity index, ratio of IC50 for rat L6 cells to IC50 for Plasmodium falciparum K1; format: toxicity; details: read-out: Ratio IC50
HCT-116 [14] = assay: Antiproliferative activity against human HCT-116 cells assessed as cell growth inhibition incubated for 96 hrs by MTS assay; format: functional, cell-based; details: HCT-116, 96 h
Plasmodium berghei = assay: Antimalarial activity against Plasmodium berghei NK65 infected in Webster Swiss mouse assessed as parasite growth inhibition at 50 mg/kg/day, po for 5 days by geimsa dye based microscopy relative to control; format: functional; set-up: scale not given: the % may be the effect or the level left; details: time 5 day
Plasmodium falciparum [15] = assay: Antimalarial activity against Plasmodium falciparum K1 assessed as parasite growth inhibition; format: functional, organism-based
HCT-116 [16] = assay: Antiproliferative activity against human HCT-116 cells assessed as cell growth inhibition; format: functional, cell-based

Chain of DNA topoisomerase 2-beta (Homo sapiens) (Q02880 whole entry): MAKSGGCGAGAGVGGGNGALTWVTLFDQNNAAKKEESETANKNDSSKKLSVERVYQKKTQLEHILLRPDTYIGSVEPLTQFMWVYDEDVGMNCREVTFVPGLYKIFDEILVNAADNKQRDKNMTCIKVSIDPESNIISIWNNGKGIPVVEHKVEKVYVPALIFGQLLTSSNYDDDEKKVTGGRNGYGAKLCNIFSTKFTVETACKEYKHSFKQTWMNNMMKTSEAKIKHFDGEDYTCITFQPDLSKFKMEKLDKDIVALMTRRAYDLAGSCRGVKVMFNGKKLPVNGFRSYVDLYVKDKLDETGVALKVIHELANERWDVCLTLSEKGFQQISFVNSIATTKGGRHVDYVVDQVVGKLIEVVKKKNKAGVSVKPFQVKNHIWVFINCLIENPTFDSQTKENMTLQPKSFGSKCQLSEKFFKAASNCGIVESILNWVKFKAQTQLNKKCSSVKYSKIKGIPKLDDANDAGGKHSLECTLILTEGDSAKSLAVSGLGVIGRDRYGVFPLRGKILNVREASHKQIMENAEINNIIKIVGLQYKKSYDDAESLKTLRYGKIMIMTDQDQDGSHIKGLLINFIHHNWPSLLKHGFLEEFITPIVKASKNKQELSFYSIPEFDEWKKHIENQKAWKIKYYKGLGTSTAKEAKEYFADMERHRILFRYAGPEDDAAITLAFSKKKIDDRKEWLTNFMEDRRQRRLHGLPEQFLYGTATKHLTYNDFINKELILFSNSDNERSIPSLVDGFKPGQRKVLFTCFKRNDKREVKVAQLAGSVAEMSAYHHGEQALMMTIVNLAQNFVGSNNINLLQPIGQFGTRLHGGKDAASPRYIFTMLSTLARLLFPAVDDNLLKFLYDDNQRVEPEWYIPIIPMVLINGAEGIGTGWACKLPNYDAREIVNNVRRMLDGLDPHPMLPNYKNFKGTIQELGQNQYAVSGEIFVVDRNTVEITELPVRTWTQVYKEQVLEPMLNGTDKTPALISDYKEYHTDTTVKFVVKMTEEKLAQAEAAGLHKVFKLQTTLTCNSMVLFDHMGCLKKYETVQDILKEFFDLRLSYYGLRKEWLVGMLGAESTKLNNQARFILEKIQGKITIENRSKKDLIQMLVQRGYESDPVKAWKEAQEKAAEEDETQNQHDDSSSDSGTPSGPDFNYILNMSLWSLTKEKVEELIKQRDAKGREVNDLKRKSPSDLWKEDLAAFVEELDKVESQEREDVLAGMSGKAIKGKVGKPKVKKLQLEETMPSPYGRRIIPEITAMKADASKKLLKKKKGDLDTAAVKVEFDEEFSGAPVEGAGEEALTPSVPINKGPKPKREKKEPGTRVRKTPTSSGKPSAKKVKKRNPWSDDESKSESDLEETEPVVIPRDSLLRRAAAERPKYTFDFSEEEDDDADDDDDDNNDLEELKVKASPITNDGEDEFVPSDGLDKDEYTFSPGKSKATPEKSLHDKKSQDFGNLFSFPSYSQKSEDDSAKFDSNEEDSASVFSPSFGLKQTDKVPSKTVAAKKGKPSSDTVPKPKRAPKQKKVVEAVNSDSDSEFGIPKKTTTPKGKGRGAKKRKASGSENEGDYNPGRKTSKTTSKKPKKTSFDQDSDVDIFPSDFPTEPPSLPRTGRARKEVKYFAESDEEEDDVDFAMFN
Chain of Telomerase reverse transcriptase (O14746 whole entry): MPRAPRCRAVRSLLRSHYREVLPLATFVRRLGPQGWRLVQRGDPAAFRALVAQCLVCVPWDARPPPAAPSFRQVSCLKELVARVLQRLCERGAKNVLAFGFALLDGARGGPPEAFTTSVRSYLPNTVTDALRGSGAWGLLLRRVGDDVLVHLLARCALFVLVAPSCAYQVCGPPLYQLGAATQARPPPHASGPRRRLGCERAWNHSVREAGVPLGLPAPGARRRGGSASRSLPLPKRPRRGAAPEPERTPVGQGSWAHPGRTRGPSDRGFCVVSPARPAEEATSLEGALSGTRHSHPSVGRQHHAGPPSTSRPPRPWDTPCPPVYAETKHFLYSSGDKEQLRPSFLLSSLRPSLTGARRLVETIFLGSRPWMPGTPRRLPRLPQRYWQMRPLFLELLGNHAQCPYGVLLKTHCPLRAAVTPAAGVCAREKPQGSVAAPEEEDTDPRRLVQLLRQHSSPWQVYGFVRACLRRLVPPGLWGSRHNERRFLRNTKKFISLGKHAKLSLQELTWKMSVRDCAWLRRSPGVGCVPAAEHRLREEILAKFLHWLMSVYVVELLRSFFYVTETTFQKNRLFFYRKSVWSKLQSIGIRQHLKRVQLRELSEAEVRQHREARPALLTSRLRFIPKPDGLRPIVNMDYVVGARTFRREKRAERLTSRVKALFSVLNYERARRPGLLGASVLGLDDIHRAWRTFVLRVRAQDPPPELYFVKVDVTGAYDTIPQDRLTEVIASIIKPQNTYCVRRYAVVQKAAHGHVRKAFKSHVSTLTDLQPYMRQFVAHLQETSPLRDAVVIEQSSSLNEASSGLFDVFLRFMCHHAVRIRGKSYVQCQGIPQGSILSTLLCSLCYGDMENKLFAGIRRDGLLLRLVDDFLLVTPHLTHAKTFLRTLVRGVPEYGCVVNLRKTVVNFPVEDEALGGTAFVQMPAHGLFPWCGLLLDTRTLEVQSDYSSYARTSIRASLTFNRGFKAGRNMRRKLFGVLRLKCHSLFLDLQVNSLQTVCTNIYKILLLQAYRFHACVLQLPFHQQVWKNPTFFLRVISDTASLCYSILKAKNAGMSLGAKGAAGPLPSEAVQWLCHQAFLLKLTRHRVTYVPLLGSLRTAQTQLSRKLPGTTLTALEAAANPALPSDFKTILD

OCCCNc1c2ccccc2nc2c1[nH]c1ccccc12
IC50 [1]: 1550 nM

COc1cc2c(cc1CN(C)CCCN(C)C)[nH]c1c3ccc(Cl)cc3ncc21
IC50 (Plasmodium falciparum [2]): 0.192 nM

CCCCNc1c2ccccc2[n+](C)c2c1[nH]c1ccccc12
IC50 (MCF7): 5900 nM | IC50 (A549): 470 nM | MIC [3]: 0.5 µM

CN(C)c1ccc(C2SCC(=O)N2CCCNc2c3c4ccccc4nc-3n(C)c3ccccc23)cc1 (configuration not stated)
IC50 (Trypanosoma brucei): 1370 nM

Cn1c2nc3ccccc3c-2c(NCCCN)c2ccccc21
selectivity ratio [4]: 3.5

Cn1c2ccccc2c2c(C(=O)NC3CCCCC3)c3cc(Cl)ccc3nc21
GI50 (MCF7): 9700 nM | GI50 (A549): 7200 nM | GI50 (HeLa): 10300 nM | GI50 (DU-145): 20700 nM

Cn1cc2c3ccccc3nc-2c2ccccc21 [ISOCRYPTOLEPINE]
IC50 (MOLT-3): 730 nM | IC50 (Plasmodium falciparum [5]): 780 nM | selectivity ratio [6]: 1.8

Cn1c2nc3ccccc3c-2c(Nc2ccccc2)c2ccccc21
GI50 (MOLT-4): 320 nM | GI50 (K562): 1840 nM | GI50 (RPMI-8226): 1080 nM

COc1ccc2[nH]c3c4ccc(Cl)cc4ncc3c2c1
IC50 (Plasmodium falciparum [2]): 2 nM

CN(C)CCc1ccc2nc3c4ccccc4n(CCN(C)C)c3cc2c1
IC50 (A2780 [7]): 10500 nM | IC50 (CH1 [8]): 8400 nM | IC50 (A2780 [9]): 12500 nM | IC50 (CH1 [10]): 12500 nM

Cn1c2nc3ccccc3c-2c(NCC(C)(C)CNC(=O)Nc2ccccc2)c2cc(Cl)ccc21
IC50 [11]: 1180 nM | IC50 (Plasmodium falciparum [12]): 19 nM | IC50 (Hemozoin): 10100 nM

Cn1c2nc3ccccc3c-2c(NCCCNC(=S)Nc2ccccc2)c2ccccc21
selectivity ratio [4]: 135 | IC50 (Trypanosoma brucei): 589 nM | selectivity ratio [13]: 11

Cn1c2nc3ccccc3c-2c(NCC(C)(C)CNC(=S)Nc2ccccc2)c2cc(Cl)ccc21
IC50 [11]: 3270 nM | IC50 (Plasmodium falciparum [12]): 19 nM | selectivity ratio [4]: 164 | IC50 (Hemozoin): 34100 nM

CCN(CC)CCOC(=O)c1ccc2c(c1)c1c(c(=O)c3ccccc3n1CCN(CC)CC)n2CCN(CC)CC
IC50 (HCT-116 [14]): 4500 nM

Cn1c2nc3ccccc3c-2c(NCC(C)(C)CNC(=O)Nc2ccccc2)c2ccccc21
IC50 [11]: 5650 nM | IC50 (Plasmodium falciparum [12]): 68 nM | selectivity ratio [4]: 82.2 | IC50 (Hemozoin): 26300 nM

C[n+]1c2ccccc2cc2[n-]c3ccccc3c21 [CRYPTOLEPINE]
IC50 (MCF7): 630 nM | Activity (Plasmodium berghei): 43% | IC50 (A549): 1050 nM | MIC [3]: 0.25 µM (≈ 0.0581 µg/mL)

NCCCNc1c2ccccc2nc2c1[nH]c1ccccc12
selectivity ratio [4]: 16 | IC50 (Hemozoin): 16800 nM

C=CCn1c2ccccc2c2c(C(=O)NC3CCCCC3)c3cc(F)ccc3nc21
GI50 (MCF7): 11900 nM | GI50 (A549): 7700 nM | GI50 (HeLa): 9900 nM | GI50 (DU-145): 9400 nM

CN(C)CCNc1c2ccccc2nc2c1[nH]c1ccccc12
IC50 [1]: 1120 nM

CN(C)CCNc1nc2ccccc2c2[nH]c3ccccc3c12
IC50 [11]: 627 nM | IC50 (Plasmodium falciparum [12]): 13.7 nM | IC50 (Plasmodium falciparum [15]): 82.7 nM | selectivity ratio [4]: 45.8 | IC50 (Hemozoin): 627000 nM | selectivity ratio [13]: 7.6

COC(=O)c1ccc2nc3n(C)c4ccccc4c(NCCCN)c-3c2c1
IC50 (Hemozoin): 48900 nM | selectivity ratio [13]: 7.2

CNCCCNc1c2ccccc2nc2c1[nH]c1ccccc12
IC50 (HCT-116 [16]): 300 nM
